Tested on: ND3 neuronal cell line
Assay: Measurement of nerve growth stimulation effect (neurite bearing assay, neurite length assay, number of cells)
Assay type: cell-based
Settings: relative cell number, DMSO well = 1; for Number of cells: ND3 cells, 6 h; for viability at 1 µM / viability at 3 µM / viability at 5 µM / viability at 10 µM / viability at 30 µM / viability at 100 µM: 6 hours
Protocol: To evaluate the nerve growth stimulation effect, neurite bearing assay (proportion of neurite-bearing cells) and neurite length assay (neurite length) were analyzed with reference to the method of Topalli et al. (Brain Research 1030 (2004), pp. 116-124).
An ND3 neuronal cell line (European Collection of Authenticated Cell Cultures) was seeded in a DMEM medium containing 10% fetal bovine serum (0.6×10^4 cells/1 mL) in a 24-well plate. 24 hours later, the medium of seeded cells was removed, and a solution in which the compound of the present disclosure that was sequentially diluted in dimethyl sulfoxide (DMSO) was adjusted in DIEM containing 0.1% bovine serum albumin so that the DMSO final concentration was 0.1%, was added to cells (evaluation performed in duplicate). After six hours from the addition, the proportion of neurite-bearing cells (the number of cells having a neurite longer than the diameter of the cell body/number of total cells), and the neurite length per cell were analyzed. The number of total cells, proportion of neurite-bearing cells, and neurite length per cell were analyzed using a MetaMorph Neurite Outgrowth Application Module (Molecular Devices Japan K.K.). The number of cells was defined as the relative cell number, taking the number of cells per well containing DMSO as 1. The relative activity of each compound when the maximum activity of 3-(15-methoxypentadecyl)-2,4,4-trimethylcyclohexa-2-en-1-one (compound 24) in each test was defined as 1 is shown (Table 9). For the compounds for which multiple tests were conducted, the average value was shown. Data with a number of cells of 0.5 or more was also used. Accordingly, if the number of cells was less than 0.5, the neurite length per cell and the proportion of neurite-bearing cells were defined as “-”.

SMILES: COCCCCCCCCCCCCCCCC1=C(C)C(=O)CC1(C)C [Compound 69, 3-(15-methoxypentadecyl)-2,4,4-trimethylcyclopent-2-en-1-one]
- Number of cells (1 μM compound): 0.89
- Number of cells (3 μM compound): 0.89
- Number of cells (5 μM compound): 0.75
- Number of cells (10 μM compound): 0.80
- Number of cells (30 μM compound): 0.70
- Number of cells (100 μM compound): 0.47

SMILES: [2H]C([2H])(CCCCCCCCCCCCCCC1=C(C)C(=O)CCC1(C)C)OC [Compound 28, 3-(15-methoxypentadecyl-15,15-d2)-2,4,4-trimethylcyclohex-2-en-1-one]
- viability at 1 µM: 92%
- viability at 3 µM: 86%
- viability at 5 µM: 71%
- viability at 10 µM: 68%
- viability at 30 µM: 77%
- viability at 100 µM: 86%

SMILES: COCCCCCCCCCCCCCCCC1C(C)C(=O)CCC1(C)C (stereo not drawn) [Compound 63, 3-(15-methoxypentadecyl)-2,4,4-trimethylcyclohexan-1-one]
- Number of cells (1 μM compound): 1.13
- Number of cells (3 μM compound): 1.05
- Number of cells (5 μM compound): 0.84
- Number of cells (10 μM compound): 0.91
- Number of cells (30 μM compound): 1.11
- Number of cells (100 μM compound): 1.16

SMILES: COCCCCCCCCCCCCCCCC1=C(C)C(O)CCC1(C)C (stereo not drawn) [Compound 65, 3-(15-methoxypentadecyl)-2,4,4-trimethylcyclohex-2-en-1-ol]
- Number of cells (1 μM compound): 1.05
- Number of cells (3 μM compound): 1.09
- Number of cells (5 μM compound): 0.86
- Number of cells (10 μM compound): 0.87
- Number of cells (30 μM compound): 1.05
- Number of cells (100 μM compound): 1.09

SMILES: COCCCCCCCCCCCCCCCC1=C(COC)C(=O)CCC1(C)C [Compound 42, 2-(methoxymethyl)-3-(15-methoxypentadecyl)-4,4-dimethylcyclohex-2-en-1-one]
- viability at 1 µM: 86%
- viability at 3 µM: 88%
- viability at 5 µM: 76%
- viability at 10 µM: 83%
- viability at 30 µM: 87%
- viability at 100 µM: 83%

SMILES: CC1=C(CCCCCCCCCCCCCO)C(C)(C)CCC1=O [Compound 2, 3-(13-hydroxytridecyl)-2,4,4-trimethylcyclohex-2-en-1-one, reference compound]
- viability at 1 µM: 113%
- viability at 3 µM: 102%
- viability at 5 µM: 96%
- viability at 10 µM: 96%
- viability at 30 µM: 19%
- viability at 100 µM: 9%

SMILES: CCCCOCCCCCCCCCCCCC1=C(C)C(=O)CCC1(C)C [Compound 15, 3-(12-butoxydodecyl)-2,4,4-trimethylcyclohex-2-en-1-one]
- viability at 1 µM: 93%
- viability at 3 µM: 100%
- viability at 5 µM: 95%
- viability at 10 µM: 88%
- viability at 30 µM: 101%
- viability at 100 µM: 92%

SMILES: COCCCCCCCCCCCCCCCC1=C(C)C(N)CCC1(C)C (stereo not drawn) [Compound 66, 3-(15-methoxypentadecyl)-2,4,4-trimethylcyclohex-2-en-1-amine]
- Number of cells (1 μM compound): 1.15
- Number of cells (3 μM compound): 1.11
- Number of cells (5 μM compound): 0.80
- Number of cells (10 μM compound): 0.79
- Number of cells (30 μM compound): 0.39
- Number of cells (100 μM compound): 0.04

SMILES: CC1=C(CCCCCCCCCCCCCCCOC(N)=O)C(C)(C)CCC1=O [Compound 35, 15-(2,6,6-trimethyl-3-oxocyclohex-1-en-1-yl)pentadecylcarbamate]
- viability at 1 µM: 94%
- viability at 3 µM: 94%
- viability at 5 µM: 99%
- viability at 10 µM: 82%
- viability at 30 µM: 16%
- viability at 100 µM: 31%

SMILES: CCOCCCCCCCCCCCCC1=C(C)C(=O)CCC1(C)C [Compound 12, 3-(12-ethoxydodecyl)-2,4,4-trimethylcyclohex-2-en-1-one]
- viability at 1 µM: 96%
- viability at 3 µM: 90%
- viability at 5 µM: 77%
- viability at 10 µM: 69%
- viability at 30 µM: 11%
- viability at 100 µM: 3%

SMILES: COCCCCCCCCCCCCCCCC1=CC(=O)CCC1 [Compound 37, 3-(15-methoxypentadecyl)cyclohex-2-en-1-one]
- viability at 1 µM: 99%
- viability at 3 µM: 102%
- viability at 5 µM: 84%
- viability at 10 µM: 89%
- viability at 30 µM: 107%
- viability at 100 µM: 97%

SMILES: CC1=C(CCCCCCCCCCCCCCCCOC(C)C)C(C)(C)CCC1=O [Compound 31, 3-(16-isopropoxyhexadecyl)-2,4,4-trimethylcyclohex-2-en-1-one]
- viability at 1 µM: 99%
- viability at 3 µM: 93%
- viability at 5 µM: 75%
- viability at 10 µM: 77%
- viability at 30 µM: 84%
- viability at 100 µM: 93%

SMILES: COCCCCCCCCCCCCCCCC1=C(C)C(=O)CCC12CC2 [Compound 44, 4-(15-methoxypentadecyl)-5-methylspiro[2,5]oct-4-en-6-one]
- viability at 1 µM: 83%
- viability at 3 µM: 90%
- viability at 5 µM: 82%
- viability at 10 µM: 75%
- viability at 30 µM: 91%
- viability at 100 µM: 89%

SMILES: COCCCCCCCCCCCCCCCC1=C(C)CCCC1(C)C [Compound 64, 2-(15-methoxypentadecyl)-1,3,3-trimethylcyclohex-1-ene]
- Number of cells (1 μM compound): 0.80
- Number of cells (3 μM compound): 0.93
- Number of cells (5 μM compound): 0.96
- Number of cells (10 μM compound): 0.88
- Number of cells (30 μM compound): 0.96
- Number of cells (100 μM compound): 0.53

SMILES: CC1=C(CCCCCCCCCCCCCCCOC(=O)N(C)C)C(C)(C)CCC1=O [Compound 36, 15-(2,6,6-trimethyl-3-oxocyclohex-1-en-1-yl)pentadecyl dimethylcarbamate]
- viability at 1 µM: 91%
- viability at 3 µM: 107%
- viability at 5 µM: 97%
- viability at 10 µM: 94%
- viability at 30 µM: 98%
- viability at 100 µM: 86%

SMILES: CC1=C(CCCCCCCCCCCCCCCOC(C)C)C(C)(C)CCC1=O [Compound 26, 3-(15-isopropoxypentadecyl)-2,4,4-trimethylcyclohex-2-en-1-one]
- viability at 1 µM: 102%
- viability at 3 µM: 100%
- viability at 5 µM: 93%
- viability at 10 µM: 90%
- viability at 30 µM: 98%
- viability at 100 µM: 101%

SMILES: CC1=C(CCCCCCCCCCCCCCCOC2CCCCO2)C(C)(C)CCC1=O (stereo not drawn) [Compound 6, 2,4,4-trimethyl-3-(15-((tetrahydro-2H-pyran-2-yl)oxy)pentadecyl)cyclohex-2-en-1-one, reference compound]
- viability at 1 µM: 97%
- viability at 3 µM: 85%
- viability at 5 µM: 67%
- viability at 10 µM: 64%
- viability at 30 µM: 72%
- viability at 100 µM: 92%

SMILES: COCCCCCCCCCCCCCCC1=C(C)C(=O)CC1(C)C [Compound 72, 3-(14-methoxytetradecyl)-2,4,4-trimethylcyclopent-2-en-1-one]
- Number of cells (1 μM compound): 0.84
- Number of cells (3 μM compound): 0.85
- Number of cells (5 μM compound): 0.78
- Number of cells (10 μM compound): 0.80
- Number of cells (30 μM compound): 0.41
- Number of cells (100 μM compound): 0.38

SMILES: COCCCCCCCCCCCCCCCC1=C(C)C(=O)C(C)C1C (stereo not drawn) [Compound 46, 3-(15-methoxypentadecyl)-2,4,5-trimethylcyclopent-2-en-1-one]
- viability at 1 µM: 94%
- viability at 3 µM: 99%
- viability at 5 µM: 83%
- viability at 10 µM: 78%
- viability at 30 µM: 102%
- viability at 100 µM: 98%

SMILES: COCCCCCCCCCCCCC1=C(C)C(=O)CCC1(C)C [Compound 11, 3-(12-methoxydodecyl)-2,4,4-trimethylcyclohex-2-en-1-one]
- viability at 1 µM: 96%
- viability at 3 µM: 96%
- viability at 5 µM: 83%
- viability at 10 µM: 82%
- viability at 30 µM: 62%
- viability at 100 µM: 70%

SMILES: COCCCCCCCCCCCCCC1=C(C)C(=O)CCC1(C)C [Compound 16, 3-(13-methoxytridecyl)-2,4,4-trimethylcyclohex-2-en-1-one]
- viability at 1 µM: 89%
- viability at 3 µM: 88%
- viability at 5 µM: 71%
- viability at 10 µM: 68%
- viability at 30 µM: 69%
- viability at 100 µM: 77%

SMILES: COC(C)(C)CCCCCCCCCCCCCCC1=C(C)C(=O)CCC1(C)C [Compound 48, 3-(15-methoxy-15-methylhexadecyl)-2,4,4-trimethylcyclohex-2-en-1-one]
- viability at 1 µM: 85%
- viability at 3 µM: 93%
- viability at 5 µM: 91%
- viability at 10 µM: 90%
- viability at 30 µM: 93%
- viability at 100 µM: 87%

SMILES: CCC1=C(CCCCCCCCCCCCCCCOC)C(C)(C)CCC1=O [Compound 60, 2-ethyl-3-(15-methoxypentadecyl)-4,4-dimethylcyclohex-2-en-1-one]
- viability at 1 µM: 90%
- viability at 3 µM: 91%
- viability at 5 µM: 80%
- viability at 10 µM: 78%
- viability at 30 µM: 34%
- viability at 100 µM: 79%

Source: patent US20230295068A1, “NOVEL CYCLOALKENONE COMPOUND OR SALT THEREOF” (TAIHO PHARMACEUTICAL CO., LTD., priority 2020, published 2023)
